Test results reported in US20080311221A1, “LEWIS ACID AND OIL-SOLUBLE HYBRID PESTICIDE CONCENTRATE THAT SPONTANEOUSLY FORMS A WATER-BASED MICROEMULSION” (PBI/Gordon Corporation, priority 2007, published 2008).

What was measured:
[1] = Standard accelerated chemical stability test, HPLC of each active, 40° C. for thirty days; type: physicochemical; conditions: for Final percent concentration of active in concentrate: HPLC after 40° C. for thirty days, sealed container; for Initial percent concentration of active in concentrate: HPLC before storage, concentrate of Example 4 (so in the source); for % Diff: final vs initial, 40° C. for thirty days
Protocol: Another sample of the concentrate Example 4 was subjected to a standard accelerated chemical stability test by conducting an HPLC analysis of each of the active ingredients to determine the percent concentration of each active in the concentrate. The sample was then placed in a sealed container and stored at 40° C. for thirty days. An HPLC analysis was repeated following the extended storage period. All are within accepted limits as established by U.S. EPA for pesticidal products.

[2] = Ambient storage stability test, HPLC, 25° C. for two and one-half months; type: physicochemical; conditions: for Final percent concentration of active in concentrate: HPLC after 25° C. for two and one-half months; for Initial percent concentration of active in concentrate: HPLC before storage, concentrate of Example 4 (so in the source); for % Diff: final vs initial, 25° C. for two and one-half months
Protocol: A further sample of the concentrate of Example 4 was tested under ambient storage conditions at 25° C. for two and one-half months. The sample was initially subjected to an HPLC test, and then again tested at the end of the storage period.

| SMILES | Final percent concentration of active in concentrate [1] [%] | Initial percent concentration of active in concentrate [1] [%] | % Diff [1] [%] | Final percent concentration of active in concentrate [2] [%] | Initial percent concentration of active in concentrate [2] [%] | % Diff [2] [%] |
| --- | --- | --- | --- | --- | --- | --- |
| O=C(O)COc1ccc(Cl)cc1Cl [2,4-D] | 8.987 | 9.203 | −2.35 | 9.154 | 9.203 | −0.53 |
| COc1c(Cl)ccc(Cl)c1C(=O)O [Dicamba] | 1.091 | 1.141 | −4.38 | 0.933 | 0.946 | −1.37 |
| CSC(=O)c1c(C(F)F)nc(C(F)(F)F)c(C(=O)SC)c1CC(C)C [Dithiopyr] | 1.909 | 1.977 | −3.44 | 1.921 | 1.977 | −2.83 |
| O=C(O)c1c(Cl)ccc2cc(Cl)cnc12 [Quinclorac] | 1.876 | 1.91 | −1.78 | 1.929 | 1.91 | 0.99 |
| Cc1nn(-c2cc(NS(C)(=O)=O)c(Cl)cc2Cl)c(=O)n1C(F)F [Sulfentrazone] | 0.363 | 0.379 | −4.22 | 0.380 | 0.379 | 0.26 |
